Marks after values point to notes of the source that are not given here.
Legend:
[1] = Ocular pharmacokinetic evaluation in rabbits; format: in vivo, New Zealand White rabbits
Method: The experimental animals were normotensive male New Zealand White rabbits. A single drop (35 μl) of a compound, (302s), at a concentration of 0.126% (corrected for oxalate salt weight) was administered to each eye by pipette. At 0.25, 0.5, 1, 2, 4, 8, and 24 hours, plasma, aqueous humor, vitreous humor, cornea, iris-ciliary body, retina, and choroid were collected (2 rabbits/timepoint, or 4 eyes/timepoint). Approximately 0.5 ml of blood was collected and placed in EDTA tubes. Blood samples were kept on ice during the duration of sample collection, and centrifuged to harvest plasma. Animals were euthanized and ocular tissues were collected and placed in vials and kept on dry ice for the duration of the collections. All ocular tissue and plasma samples were stored at or below −60° C. until bioanalysis. […] The plasma concentration at most timepoints was >100-fold lower than the compound concentration in target ocular tissues (iris/ciliary body, cornea, retina). The concentration of compound 302s in the target ocular tissues remained at active levels up to at least 24 h. Abbreviations used in FIG. 3 have the following meanings AH (Aqueous Humor), VH (Vitreous Humor) ICB (Iris Ciliary Body), CenP Retina (Center Punch Retina), Per Retina (Peripheral Retina) CenP Choroid (Center Punch Choroid), and Per Choroid (Peripheral Choroid)

M1 muscarinic receptor = M1 muscarinic receptor (Homo sapiens (Human), UniProt P11229); test: M1 GTPγS binding assay; format: biochemical; conditions: for Emax: read-out: M1 GTPγS EFF % AVG;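 on Emax: efficacy relative to carbachol as 100%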
[2] = target: human M2 muscarinic acetylcholine receptor (Homo sapiens (Human), UniProt P08172); test: R-SAT (Receptor Selection and Amplification) assay, M2; format: cell-based; conditions: for M2 PEC50 AVG: NIH-3T3 cells; for Emax: read-out: M2 EFF % AVG
Method: (§1) Briefly, NIH-3T3 cells were grown in 96-well tissue culture plates to 70% to 80% confluence. Cells were transfected with plasmid DNAs using Superfect Reagent (QIAGEN, Valencia, Calif.) as per the manufacturer's protocols. […] Cells were then grown in a humidified atmosphere with 5% ambient CO2 for 4 to 6 days. Media were then removed from the plates, and beta-galactosidase activity was measured by the addition of o-nitrophenyl-D-galactopyranoside (in phosphate-buffered saline with 5% NP-40 detergent). […] All data represent the mean of three wells and were analyzed using the computer program Excel Fit, and EC50 determinations were made using least-squares fit analysis with GraphPad Software Inc. (San Diego, Calif.) software.

tear secretion = test: Tear secretion (phenol red thread) in mice; format: in vivo, balb/c mice; conditions: for Effects on tear secretion compared to Comparative Compound 2: other studies using the same method (Table 2), statistically significant compared to vehicle
Method: The tear distance, in mm, is recorded. The mice were not anesthetized or otherwise sedated. […] Data are analyzed by repeated measures ANOVA with post-hoc Bonferroni comparisons to vehicle. […] Further details can be seen in FIG. 2.

[3] = target: human M1 muscarinic acetylcholine receptor (Homo sapiens (Human), UniProt P11229); test: R-SAT (Receptor Selection and Amplification) assay, M1; format: cell-based; conditions: for M1 PEC50 AVG: NIH-3T3 cells; for Emax: read-out: M1 EFF % AVG
Method: as §1

[4] = target: human M3 muscarinic acetylcholine receptor (Homo sapiens (Human), UniProt P20309); test: R-SAT (Receptor Selection and Amplification) assay, M3; format: cell-based; conditions: for M3 PEC50 AVG: NIH-3T3 cells; for Emax: read-out: M3 EFF % AVG
Method: as §1

[5] = first study of Table 2, 1 hr post-dosing, 5 μl drop of 0.1% to each eye
[6] = second study of Table 2, 1 hr post-dosing, 5 μl drop of 0.1% to each eye
[7] = second study of Table 2, 3 hr post-dosing, 5 μl drop of 0.1% to each eye
[8] = third study (pilocarpine 24-hour study), 3 hr post-dosing, 0.1% 5 μl drop, Pilocarpine 0.2% 20 μl drop
[9] = third study (pilocarpine 24-hour study), 6 hr post-dosing, 0.1% 5 μl drop, Pilocarpine 0.2% 20 μl drop
[10] = third study (pilocarpine 24-hour study), 24 hr post-dosing, 0.1% 5 μl drop, Pilocarpine 0.2% 20 μl drop
[11] = percent efficacy vs carbachol = 100 percent
[12] = R-SAT, percent efficacy vs carbachol = 100 percent

human M2 muscarinic acetylcholine receptor, sequence (P08172 whole entry): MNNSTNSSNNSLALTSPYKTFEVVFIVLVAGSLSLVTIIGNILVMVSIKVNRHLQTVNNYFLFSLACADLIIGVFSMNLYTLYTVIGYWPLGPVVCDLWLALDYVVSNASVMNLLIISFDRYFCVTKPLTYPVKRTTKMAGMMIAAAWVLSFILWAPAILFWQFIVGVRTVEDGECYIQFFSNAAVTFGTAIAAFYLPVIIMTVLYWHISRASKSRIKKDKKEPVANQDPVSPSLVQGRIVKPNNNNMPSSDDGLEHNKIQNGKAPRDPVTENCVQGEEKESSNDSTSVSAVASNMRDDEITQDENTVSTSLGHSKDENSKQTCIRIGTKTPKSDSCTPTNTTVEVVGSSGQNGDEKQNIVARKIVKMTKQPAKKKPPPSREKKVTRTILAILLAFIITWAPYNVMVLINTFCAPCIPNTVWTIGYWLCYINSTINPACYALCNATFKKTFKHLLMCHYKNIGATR
human M3 muscarinic acetylcholine receptor, sequence (P20309 whole entry): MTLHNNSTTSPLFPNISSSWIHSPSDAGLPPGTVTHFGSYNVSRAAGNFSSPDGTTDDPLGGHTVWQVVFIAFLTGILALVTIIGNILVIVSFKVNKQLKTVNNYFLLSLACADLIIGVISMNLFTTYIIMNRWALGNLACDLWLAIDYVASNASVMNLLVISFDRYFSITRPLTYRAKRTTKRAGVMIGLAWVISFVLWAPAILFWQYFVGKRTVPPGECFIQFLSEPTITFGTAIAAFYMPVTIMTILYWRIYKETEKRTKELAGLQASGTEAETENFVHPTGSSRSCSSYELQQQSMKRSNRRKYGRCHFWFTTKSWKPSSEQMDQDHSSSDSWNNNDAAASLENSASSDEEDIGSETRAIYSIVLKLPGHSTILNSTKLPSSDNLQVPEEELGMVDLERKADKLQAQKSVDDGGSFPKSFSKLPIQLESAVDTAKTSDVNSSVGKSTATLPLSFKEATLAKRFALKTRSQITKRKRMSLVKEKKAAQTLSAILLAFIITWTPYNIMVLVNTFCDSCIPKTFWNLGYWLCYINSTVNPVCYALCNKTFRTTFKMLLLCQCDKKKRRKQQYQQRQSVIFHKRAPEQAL
human M1 muscarinic acetylcholine receptor, sequence (P11229 whole entry): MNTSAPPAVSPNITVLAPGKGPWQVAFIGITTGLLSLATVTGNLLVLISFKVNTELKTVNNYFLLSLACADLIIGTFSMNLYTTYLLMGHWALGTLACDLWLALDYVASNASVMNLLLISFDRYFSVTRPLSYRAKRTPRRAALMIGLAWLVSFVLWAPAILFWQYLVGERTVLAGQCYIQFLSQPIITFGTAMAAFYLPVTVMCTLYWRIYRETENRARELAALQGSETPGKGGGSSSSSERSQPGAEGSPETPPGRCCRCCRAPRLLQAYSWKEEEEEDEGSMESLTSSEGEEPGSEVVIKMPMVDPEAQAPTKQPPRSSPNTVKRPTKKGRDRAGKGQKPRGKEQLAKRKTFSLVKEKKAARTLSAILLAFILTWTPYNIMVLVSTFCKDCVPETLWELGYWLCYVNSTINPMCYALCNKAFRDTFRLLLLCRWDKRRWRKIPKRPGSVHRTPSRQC
M1 muscarinic receptor, sequence (P11229 whole entry): as above

Row | SMILES | M1 GTPγS PEC50 AVG (M1 muscarinic receptor; GTPγS binding) | Emax (M1 muscarinic receptor) [%] | M2 PEC50 AVG ([2]; R-SAT) | Emax [2] [%] | Tear secretion (tear secretion; [5]) [% *] | Tear secretion (tear secretion; [6]) | Tear secretion (tear secretion; [7]) | Tear secretion (tear secretion; [8]) | Tear secretion (tear secretion; [9]) | Tear secretion (tear secretion; [10]) | M1 PEC50 AVG [3] | Emax [3, 11] [%] | M3 PEC50 AVG ([4]; R-SAT) | Emax [4] [%] | EC50 (M1 muscarinic receptor) [nM] | Effects on tear secretion compared to Comparative Compound 2 (tear secretion) | further results
1 | C[C@H](CN1[C@@H]2CC[C@H]1C[C@@H](OCC1CC1)C2)Cn1ncc2ccccc21 [Compound 302S, 1-((R)-3-((1R,3R,5S)-3-(cyclopropylmethoxy)-8-azabicyclo[3.2.1]octan-8-yl)-2-methylpropyl)-1H-indazole] | 8.5 | 98 | 7.6 | 153 | 156 | 157% * | 155% * | 152% * | 151% * | 120% † | 8.9 | 111 | 6.8 | 12 | – | – | Kp ([1]; male, New Zealand White, rabbit, retina (against plasma), topical, 35 μl of 0.126% per eye, most timepoints, iris/ciliary body, cornea, retina, read-out: Plasma concentration lower than concentration in target ocular tissues): > 100; Tmax ([1]; male, New Zealand White, rabbit, topical, 35 μl of 0.126% per eye, all tissues, single 35 μl drop of 0.126% to each eye): 15 min; Cmax ([1]; male, New Zealand White, rabbit, topical, 35 μl of 0.126% per eye, plasma, single 35 μl drop of 0.126% to each eye, read-out: Maximal plasma concentration (Cmax)): 6.4 ng/g; Time the concentration in the target ocular tissues remained at active levels ([1]; target ocular tissues, single topical drop): at least 24 h; Tear secretion compared to vehicle (tear secretion; pilocarpine 24-hour study, 3 and 6 hours post-dosing): statistically significant improved tear secretion; Tear secretion compared to vehicle (tear secretion; pilocarpine 24-hour study, 24 hours post-dosing): trend toward significance; Enhancement of tear secretion compared to pilocarpine (tear secretion; pilocarpine 24-hour study, all time points): exceeded the effect of pilocarpine at all time points
2 | COCC[C@H]1C[C@H]2CC[C@@H](C1)N2C[C@@H](C)Cn1ncc2ccccc21 [Compound 303S, 1-((R)-3-((1R,3R,5S)-3-(2-Methoxyethyl)-8-azabicyclo[3.2.1]octan-8-yl)-2-methylpropyl)-1H-indazole] | – | 67 | 7.1 | 102 | – | 131% | 134% * | – | – | – | 8.4 | 121 | – | 8 | 63.1 | greater than that of Comparative Compound 2 | –
3 | C=CCO[C@H]1C[C@H]2CC[C@@H](C1)N2C[C@@H](C)Cn1ncc2ccccc21 [Compound 305, 1-((R)-3-((1R,3R,5S)-3-(Allyloxy)-8-azabicyclo[3.2.1]octan-8-yl)-2-methylpropyl)-1H-indazole] | – | 70 | 6.9 | 107 | 163 | – | – | – | – | – | 8.1 | 115 | – | 4 | 79.4 | greater than that of Comparative Compound 2 | –
4 | CC(C)(C)OC(=O)N1C2CC[C@H]1C[C@@H](O)C2 [Comparative compound 2, reference compound] | 7.9 | – | 7.1 | – | 149 | 113% | 123% | 134% | 110% | 98% | 9.0 | – | 7.1 | – | – | – | M1 GTPγS EFF % AVG (M1 muscarinic receptor; GTPγS binding, percent efficacy vs carbachol = 100 percent): 32%; M2 EFF % AVG [2, 12]: 52%; Effect on tear secretion compared to vehicle (tear secretion; pilocarpine 24-hour study): not significantly different from vehicle; M1 EFF % AVG [3, 11]: 126%; M3 EFF % AVG [4, 12]: 30%

Reference: US9670209B2 (ACADIA Pharmaceuticals Inc., priority 2013, dated 2017)
